{"source": "ChEMBL document CHEMBL1201862", "about": "“PubChem BioAssay data set” (2004)", "key": {"[1]": {"target": "T1, Neuropeptides B/W receptor type 1 (Homo sapiens, UniProt P48145)", "T1 sequence (P48145 whole entry)": "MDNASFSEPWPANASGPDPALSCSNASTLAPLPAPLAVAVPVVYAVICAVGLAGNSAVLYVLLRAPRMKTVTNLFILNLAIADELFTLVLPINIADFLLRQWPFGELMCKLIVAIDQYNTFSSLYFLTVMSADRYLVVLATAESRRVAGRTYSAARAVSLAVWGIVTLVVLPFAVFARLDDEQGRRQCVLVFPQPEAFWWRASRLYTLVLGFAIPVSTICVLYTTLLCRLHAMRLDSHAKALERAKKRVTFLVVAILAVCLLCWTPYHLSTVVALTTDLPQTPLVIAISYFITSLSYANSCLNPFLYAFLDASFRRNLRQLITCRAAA", "assay": "Fluorescence-based dose response cell-based high throughput screening assay to identify antagonists of the G-protein coupled receptor 7 (GPR7). [Related pubchem assays: 1952 (Screening assay (GPR7 antagonists).), 1880 (Summary AID.)]", "format": "functional"}, "[2]": {"target": "Melanin-concentrating hormone receptor 1 (Homo sapiens, UniProt Q99705)", "sequence (Q99705 whole entry)": "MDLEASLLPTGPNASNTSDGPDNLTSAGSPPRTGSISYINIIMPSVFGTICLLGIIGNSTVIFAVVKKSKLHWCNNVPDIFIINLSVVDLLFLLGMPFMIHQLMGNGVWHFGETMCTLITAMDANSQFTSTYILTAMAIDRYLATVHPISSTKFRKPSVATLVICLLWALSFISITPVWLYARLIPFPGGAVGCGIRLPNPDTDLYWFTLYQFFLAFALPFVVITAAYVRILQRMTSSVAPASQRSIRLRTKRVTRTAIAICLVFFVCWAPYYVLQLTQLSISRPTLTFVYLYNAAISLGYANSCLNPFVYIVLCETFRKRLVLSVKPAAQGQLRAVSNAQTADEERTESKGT", "assay": "Fluorescence-based counterscreen for antagonists of the G-protein coupled receptor 7 (GPR7): cell-based high throughput dose response assay to identify antagonists of the melanin-concentrating hormone receptor 1 (MCHR1).", "format": "functional"}, "[3]": {"target": "T2, Tyrosine-protein phosphatase non-receptor type 7 (Homo sapiens, UniProt P35236)", "T2 sequence (P35236 whole entry)": "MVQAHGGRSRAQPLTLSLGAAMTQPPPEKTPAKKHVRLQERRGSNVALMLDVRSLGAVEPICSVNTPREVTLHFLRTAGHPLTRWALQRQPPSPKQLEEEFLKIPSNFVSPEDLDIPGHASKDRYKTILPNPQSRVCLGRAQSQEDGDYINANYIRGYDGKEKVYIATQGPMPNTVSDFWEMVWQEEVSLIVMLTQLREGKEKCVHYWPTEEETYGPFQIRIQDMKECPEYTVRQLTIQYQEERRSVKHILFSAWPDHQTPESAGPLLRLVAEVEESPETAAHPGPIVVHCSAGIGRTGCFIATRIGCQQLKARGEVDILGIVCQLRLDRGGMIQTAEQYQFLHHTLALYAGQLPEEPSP", "format": "functional"}, "Albumin": {"target": "Albumin (Bos taurus, UniProt P02769)", "sequence (P02769 whole entry)": "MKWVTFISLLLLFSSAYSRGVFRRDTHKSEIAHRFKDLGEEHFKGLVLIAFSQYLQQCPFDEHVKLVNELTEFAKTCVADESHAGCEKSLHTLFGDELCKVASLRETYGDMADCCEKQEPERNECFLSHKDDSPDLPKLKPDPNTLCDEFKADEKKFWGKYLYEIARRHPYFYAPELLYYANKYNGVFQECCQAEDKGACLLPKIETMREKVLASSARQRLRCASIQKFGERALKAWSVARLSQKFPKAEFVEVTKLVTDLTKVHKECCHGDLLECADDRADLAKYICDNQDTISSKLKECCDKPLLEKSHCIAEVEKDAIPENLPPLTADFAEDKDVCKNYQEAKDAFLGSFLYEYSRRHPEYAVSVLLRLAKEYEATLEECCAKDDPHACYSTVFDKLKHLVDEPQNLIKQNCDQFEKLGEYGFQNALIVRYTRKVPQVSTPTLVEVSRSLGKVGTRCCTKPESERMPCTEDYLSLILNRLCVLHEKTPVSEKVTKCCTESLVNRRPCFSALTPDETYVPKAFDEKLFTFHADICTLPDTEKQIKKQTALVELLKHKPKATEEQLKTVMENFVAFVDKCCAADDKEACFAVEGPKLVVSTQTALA", "assay": "Counterscreen for inhibitors of T-cell receptor (TCR)-CD3 interaction: Fluorescence-based biochemical high throughput dose response assay to identify inhibitors of T-cell receptor (TCR)-CD3 interaction using a TAMRA-labeled BSA probe.", "format": "functional"}, "[4]": {"target": "Serine/threonine-protein phosphatase (Homo sapiens, UniProt Q9BPW0)", "sequence (Q9BPW0 whole entry)": "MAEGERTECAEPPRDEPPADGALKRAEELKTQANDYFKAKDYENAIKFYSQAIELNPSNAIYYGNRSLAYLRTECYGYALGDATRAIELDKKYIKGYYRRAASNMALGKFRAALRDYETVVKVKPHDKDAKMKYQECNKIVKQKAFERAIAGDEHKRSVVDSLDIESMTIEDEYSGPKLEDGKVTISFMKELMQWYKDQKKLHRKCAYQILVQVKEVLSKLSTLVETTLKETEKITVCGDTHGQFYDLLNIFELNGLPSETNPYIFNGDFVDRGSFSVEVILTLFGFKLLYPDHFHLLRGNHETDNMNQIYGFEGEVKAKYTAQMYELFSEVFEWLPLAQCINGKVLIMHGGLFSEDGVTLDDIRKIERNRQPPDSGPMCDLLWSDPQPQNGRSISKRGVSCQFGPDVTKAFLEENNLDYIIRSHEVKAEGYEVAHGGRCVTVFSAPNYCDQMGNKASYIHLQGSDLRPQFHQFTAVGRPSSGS", "assay": "inhibition of protein phosphatase 5 activity – biochemical, fluorescence, dose response (AID 2395)"}, "Caspase-6": {"target": "T3, Caspase-6 (Homo sapiens, UniProt P55212)", "T3 sequence (P55212 whole entry)": "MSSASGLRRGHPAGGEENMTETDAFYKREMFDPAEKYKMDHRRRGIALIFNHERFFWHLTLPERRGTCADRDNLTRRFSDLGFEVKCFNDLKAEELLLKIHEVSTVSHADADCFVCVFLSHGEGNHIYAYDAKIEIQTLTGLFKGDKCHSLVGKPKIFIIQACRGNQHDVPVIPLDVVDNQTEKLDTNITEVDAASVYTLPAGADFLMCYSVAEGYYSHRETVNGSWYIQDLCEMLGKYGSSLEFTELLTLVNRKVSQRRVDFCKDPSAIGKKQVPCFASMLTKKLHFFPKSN", "assay": "inhibition of CASP6 peptide cleavage – biochemical, VEID-R110 fluorescence, cherry-pick, dose response (AID 720632)"}, "[5]": {"target": "T4, Dual specificity protein phosphatase 3 (Homo sapiens, UniProt P51452)", "T4 sequence (P51452 whole entry)": "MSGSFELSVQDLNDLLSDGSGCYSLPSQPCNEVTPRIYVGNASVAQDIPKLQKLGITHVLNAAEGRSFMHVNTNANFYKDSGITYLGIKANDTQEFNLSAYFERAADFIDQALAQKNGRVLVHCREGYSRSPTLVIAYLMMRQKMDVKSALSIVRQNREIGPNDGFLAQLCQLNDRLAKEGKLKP", "assay": "VHR1 phosphatase inhibitors, biochemical (AID 1878)"}, "[6]": {"target": "T4, Dual specificity protein phosphatase 3", "assay": "VHR1 phosphatase inhibitors, primary screen, biochemical, absorbance, uHTS (AID 1654)"}, "[7]": {"target": "T5, Tyrosine-protein phosphatase non-receptor type 22 (Homo sapiens, UniProt Q9Y2R2)", "T5 sequence (Q9Y2R2 whole entry)": "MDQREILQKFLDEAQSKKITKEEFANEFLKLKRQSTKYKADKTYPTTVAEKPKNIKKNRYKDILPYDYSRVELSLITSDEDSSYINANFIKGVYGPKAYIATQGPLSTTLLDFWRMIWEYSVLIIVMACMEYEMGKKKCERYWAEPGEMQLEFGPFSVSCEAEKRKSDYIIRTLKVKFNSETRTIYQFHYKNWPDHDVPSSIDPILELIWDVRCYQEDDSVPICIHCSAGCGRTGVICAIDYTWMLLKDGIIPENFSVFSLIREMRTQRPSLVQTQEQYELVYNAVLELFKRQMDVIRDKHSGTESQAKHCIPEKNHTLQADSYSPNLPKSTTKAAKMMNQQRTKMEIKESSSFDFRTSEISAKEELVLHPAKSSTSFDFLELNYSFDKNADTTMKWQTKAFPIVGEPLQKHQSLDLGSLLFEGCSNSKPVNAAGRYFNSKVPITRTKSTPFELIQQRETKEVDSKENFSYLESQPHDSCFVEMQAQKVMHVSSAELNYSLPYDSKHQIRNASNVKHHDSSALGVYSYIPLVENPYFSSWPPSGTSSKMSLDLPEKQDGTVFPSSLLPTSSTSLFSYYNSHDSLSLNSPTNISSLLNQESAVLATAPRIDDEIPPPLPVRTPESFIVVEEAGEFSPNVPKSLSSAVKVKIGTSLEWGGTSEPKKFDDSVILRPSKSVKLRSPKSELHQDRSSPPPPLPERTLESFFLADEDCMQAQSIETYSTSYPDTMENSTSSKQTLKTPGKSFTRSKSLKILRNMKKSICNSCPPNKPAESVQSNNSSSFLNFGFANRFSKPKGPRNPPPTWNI", "assay": "LYP1 Fluorescent Assay using OMFP substrate for In Vitro dose response studies. [Related pubchem assays (depositor defined):AID1779, AID1784, AID435024]"}, "Caspase-3": {"target": "T6, Caspase-3 (Homo sapiens, UniProt P42574)", "T6 sequence (P42574 whole entry)": "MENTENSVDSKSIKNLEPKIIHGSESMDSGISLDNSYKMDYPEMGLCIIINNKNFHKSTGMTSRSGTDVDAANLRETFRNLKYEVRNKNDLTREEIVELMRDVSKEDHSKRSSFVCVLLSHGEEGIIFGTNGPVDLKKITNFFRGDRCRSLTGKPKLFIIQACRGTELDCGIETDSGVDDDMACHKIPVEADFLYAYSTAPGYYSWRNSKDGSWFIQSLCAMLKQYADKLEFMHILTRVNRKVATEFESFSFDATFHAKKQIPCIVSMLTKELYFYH", "assay": "Dose-response confirmation of uHTS inhibitor hits of Sentrin-Specific Protease 8 in a Caspase-3 Fluorescence assay.", "format": "functional"}}, "note": "Active and inactive are the calls of the source."}
{"smiles": "CCN1/C(=C/c2ccc3cc(C)ccc3[n+]2CC)Sc2cc(C)c(C)cc21", "values": [{"measurement": "IC50", "setting": "[1]", "value": "9.2 µM (active)"}, {"measurement": "IC50", "setting": "[2]", "value": "> 4.87 µM (active)"}]}
{"smiles": "Nc1ccc2nc3c(O)nc(S)nc3nc2c1", "values": [{"measurement": "IC50", "setting": "[3]", "value": "> 79.4 µM (inactive)"}, {"measurement": "IC50", "setting": "Albumin", "value": "25.6 µM (inactive)"}]}
{"smiles": "O=C1CCCC2=C1C1(O)C(=O)c3ccccc3C1(O)O2", "note": "(configuration not stated)", "values": [{"measurement": "IC50", "setting": "[4]", "value": "> 0.828 µM (active)"}]}
{"smiles": "CSc1ccc(C=NNc2ccc(S(=O)(=O)Nc3ccccc3C(=O)O)cc2[N+](=O)[O-])cc1", "values": [{"measurement": "AC50", "setting": "Caspase-6", "value": "6.66 µM (active)"}]}
{"smiles": "O=C(O)COc1ccc(/C=N/NC(=O)c2ccc(-c3csc(Nc4ccc(Cl)cc4)n3)cc2)cc1", "values": [{"measurement": "IC50", "setting": "[3]", "value": "< 1.24 µM (active)"}, {"measurement": "IC50", "setting": "[5]", "value": "1.3 µM (active)"}, {"measurement": "IC50", "setting": "[6]", "value": "2.52 µM (active)"}, {"measurement": "IC50", "setting": "[7]", "value": "> 99 µM (inactive)"}]}
{"smiles": "COc1cc(NCCCNC(C)C)c2nccc(C)c2c1", "values": [{"measurement": "AC50", "setting": "Caspase-6", "value": "33.5 µM (active)"}, {"measurement": "IC50", "setting": "Caspase-3", "value": "13.8 µM (active)"}]}
